Test results reported in publication PMC5146859, “Phase 1/2 study of pacritinib, a next generation JAK2/FLT3 inhibitor, in myelofibrosis or other myeloid malignancies” (Journal of Hematology & Oncology, 2016).

System: patients with advanced myeloid malignancies
Assay: Phase 1 safety: adverse events (NCIC-CTCAE version 3.0)
Assay type: in vivo, human
Method: At screening/baseline, patients underwent a medical history, physical examination, vital sign assessment, ECOG PS assessment, electrocardiogram, and assessment of hematologic parameters and blood chemistry. Hematology/blood chemistry, physical examinations, and vital sign assessments were performed throughout treatment. Toxicity was assessed using the National Cancer Institute Common Terminology Criteria for Adverse Events (NCIC-CTCAE), version 3.0, with relationship to treatment assigned by the investigator and were recorded from the first dose of pacritinib until 30 days after the last dose. Bone marrow biopsy and/or aspirate samples were drawn at baseline, on day 1 of cycle 4 and cycle 10, as clinically indicated, and at the termination visit. Disease response and progression were determined using the relevant International Working Group (IWG) criteria.
The efficacy-evaluable population included those patients with a baseline and corresponding follow-up value. The safety population included all enrolled patients who received ≥1 dose of pacritinib.

For `C1=C/COCc2cc(ccc2OCCN2CCCC2)Nc2nccc(n2)-c2cccc(c2)COC/1` [pacritinib, 11-(2-pyrrolidin-1-yl-ethoxy)-14,19-dioxa-5,7,26-triaza-tetracyclo[19.3.1.1(2,6). 1(8,12)]heptacosa-1(25),2(26),3,5,8,10,12(27),16,21,23-decaene], the “Treatment-emergent AE: Dehydration” value (phase 1, 200 mg, n = 9) was 0 n (%), the “Treatment-emergent AE: Diarrhea” value (phase 1, 200 mg, n = 9) was 5 (55.6) n (%) and the “Treatment-emergent AE: Dizziness” value (phase 1, 200 mg, n = 9) was 2 (22.2) n (%). For the same molecule, the “Treatment-emergent AE: Dyspnea” value (phase 1, 200 mg, n = 9) was 0 n (%), the “Treatment-emergent AE: Edema peripheral” value (phase 1, 200 mg, n = 9) was 1 (11.1) n (%) and the “Treatment-emergent AE: Epistaxis” value (phase 1, 200 mg, n = 9) was 1 (11.1) n (%). For the same molecule, the “Treatment-emergent AE: Fatigue” value (phase 1, 200 mg, n = 9) was 3 (33.3) n (%), the “Treatment-emergent AE: Hyperbilirubinemia” value (phase 1, 200 mg, n = 9) was 1 (11.1) n (%) and the “Treatment-emergent AE: Hyperuricemia” value (phase 1, 200 mg, n = 9) was 0 n (%). For the same molecule, the “Treatment-emergent AE: Insomnia” value (phase 1, 200 mg, n = 9) was 2 (22.2) n (%), the “Treatment-emergent AE: Nausea” value (phase 1, 200 mg, n = 9) was 2 (22.2) n (%) and the “Treatment-emergent AE: Neutropenia” value (phase 1, 200 mg, n = 9) was 0 n (%). For the same molecule, the “Treatment-emergent AE: Night sweats” value (phase 1, 200 mg, n = 9) was 1 (11.1) n (%), the “Treatment-emergent AE: Pain in extremity” value (phase 1, 200 mg, n = 9) was 0 n (%) and the “Treatment-emergent AE: Petechiae” value (phase 1, 200 mg, n = 9) was 0 n (%). The “Treatment-emergent AE: Pyrexia” value (phase 1, 200 mg, n = 9) was 2 (22.2) n (%), the “Treatment-emergent AE: Skin lesion” value (phase 1, 200 mg, n = 9) was 1 (11.1) n (%) and the “Treatment-emergent AE: Thrombocytopenia” value (phase 1, 200 mg, n = 9) was 0 n (%). The “Treatment-emergent AE: Upper respiratory tract infection” value (phase 1, 200 mg, n = 9) was 2 (22.2) n (%), the “Treatment-emergent AE: Vomiting” value (phase 1, 200 mg, n = 9) was 4 (44.4) n (%) and the “Treatment-emergent AE: Abdominal distension” value (phase 1, 300 mg, n = 6) was 1 (16.7) n (%). The “Treatment-emergent AE: Abdominal pain” value (phase 1, 300 mg, n = 6) was 1 (16.7) n (%), the “Treatment-emergent AE: Anemia” value (phase 1, 300 mg, n = 6) was 1 (16.7) n (%) and the “Treatment-emergent AE: Any AE” value (phase 1, 300 mg, n = 6) was 6 (100.0) n (%). For the same molecule, the “Treatment-emergent AE: Asthenia” value (phase 1, 300 mg, n = 6) was 0 n (%), the “Treatment-emergent AE: Back pain” value (phase 1, 300 mg, n = 6) was 1 (16.7) n (%) and the “Treatment-emergent AE: Cardiac murmur” value (phase 1, 300 mg, n = 6) was 0 n (%). The “Treatment-emergent AE: Chills” value (phase 1, 300 mg, n = 6) was 0 n (%), the “Treatment-emergent AE: Constipation” value (phase 1, 300 mg, n = 6) was 1 (16.7) n (%) and the “Treatment-emergent AE: Cough” value (phase 1, 300 mg, n = 6) was 1 (16.7) n (%). The “Treatment-emergent AE: Decreased appetite” value (phase 1, 300 mg, n = 6) was 0 n (%), the “Treatment-emergent AE: Dehydration” value (phase 1, 300 mg, n = 6) was 0 n (%) and the “Treatment-emergent AE: Diarrhea” value (phase 1, 300 mg, n = 6) was 3 (50.0) n (%). For the same molecule, the “Treatment-emergent AE: Dizziness” value (phase 1, 300 mg, n = 6) was 1 (16.7) n (%), the “Treatment-emergent AE: Dyspnea” value (phase 1, 300 mg, n = 6) was 0 n (%) and the “Treatment-emergent AE: Edema peripheral” value (phase 1, 300 mg, n = 6) was 0 n (%). The “Treatment-emergent AE: Epistaxis” value (phase 1, 300 mg, n = 6) was 2 (33.3) n (%), the “Treatment-emergent AE: Fatigue” value (phase 1, 300 mg, n = 6) was 2 (33.3) n (%) and the “Treatment-emergent AE: Hyperbilirubinemia” value (phase 1, 300 mg, n = 6) was 1 (16.7) n (%). The “Treatment-emergent AE: Hyperuricemia” value (phase 1, 300 mg, n = 6) was 0 n (%), the “Treatment-emergent AE: Insomnia” value (phase 1, 300 mg, n = 6) was 1 (16.7) n (%) and the “Treatment-emergent AE: Nausea” value (phase 1, 300 mg, n = 6) was 3 (50.0) n (%). The “Treatment-emergent AE: Neutropenia” value (phase 1, 300 mg, n = 6) was 1 (16.7) n (%), the “Treatment-emergent AE: Night sweats” value (phase 1, 300 mg, n = 6) was 0 n (%) and the “Treatment-emergent AE: Pain in extremity” value (phase 1, 300 mg, n = 6) was 1 (16.7) n (%). For the same molecule, the “Treatment-emergent AE: Petechiae” value (phase 1, 300 mg, n = 6) was 0 n (%), the “Treatment-emergent AE: Pyrexia” value (phase 1, 300 mg, n = 6) was 1 (16.7) n (%) and the “Treatment-emergent AE: Skin lesion” value (phase 1, 300 mg, n = 6) was 0 n (%). For the same molecule, the “Treatment-emergent AE: Thrombocytopenia” value (phase 1, 300 mg, n = 6) was 1 (16.7) n (%), the “Treatment-emergent AE: Upper respiratory tract infection” value (phase 1, 300 mg, n = 6) was 1 (16.7) n (%) and the “Treatment-emergent AE: Vomiting” value (phase 1, 300 mg, n = 6) was 2 (33.3) n (%). The “Treatment-emergent AE: Abdominal distension” value (phase 1, 400 mg, n = 6) was 3 (50.0) n (%), the “Treatment-emergent AE: Abdominal pain” value (phase 1, 400 mg, n = 6) was 2 (33.3) n (%) and the “Treatment-emergent AE: Anemia” value (phase 1, 400 mg, n = 6) was 2 (33.3) n (%). The “Treatment-emergent AE: Any AE” value (phase 1, 400 mg, n = 6) was 6 (100.0) n (%), the “Treatment-emergent AE: Asthenia” value (phase 1, 400 mg, n = 6) was 0 n (%) and the “Treatment-emergent AE: Back pain” value (phase 1, 400 mg, n = 6) was 2 (33.3) n (%). For the same molecule, the “Treatment-emergent AE: Cardiac murmur” value (phase 1, 400 mg, n = 6) was 1 (16.7) n (%), the “Treatment-emergent AE: Chills” value (phase 1, 400 mg, n = 6) was 1 (16.7) n (%) and the “Treatment-emergent AE: Constipation” value (phase 1, 400 mg, n = 6) was 2 (33.3) n (%). The “Treatment-emergent AE: Cough” value (phase 1, 400 mg, n = 6) was 1 (16.7) n (%), the “Treatment-emergent AE: Decreased appetite” value (phase 1, 400 mg, n = 6) was 3 (50.0) n (%) and the “Treatment-emergent AE: Dehydration” value (phase 1, 400 mg, n = 6) was 2 (33.3) n (%). The “Treatment-emergent AE: Diarrhea” value (phase 1, 400 mg, n = 6) was 6 (100.0) n (%), the “Treatment-emergent AE: Dizziness” value (phase 1, 400 mg, n = 6) was 1 (16.7) n (%) and the “Treatment-emergent AE: Dyspnea” value (phase 1, 400 mg, n = 6) was 2 (33.3) n (%). For the same molecule, the “Treatment-emergent AE: Edema peripheral” value (phase 1, 400 mg, n = 6) was 2 (33.3) n (%), the “Treatment-emergent AE: Epistaxis” value (phase 1, 400 mg, n = 6) was 1 (16.7) n (%) and the “Treatment-emergent AE: Fatigue” value (phase 1, 400 mg, n = 6) was 2 (33.3) n (%). The “Treatment-emergent AE: Hyperbilirubinemia” value (phase 1, 400 mg, n = 6) was 1 (16.7) n (%), the “Treatment-emergent AE: Hyperuricemia” value (phase 1, 400 mg, n = 6) was 0 n (%) and the “Treatment-emergent AE: Insomnia” value (phase 1, 400 mg, n = 6) was 1 (16.7) n (%). The “Treatment-emergent AE: Nausea” value (phase 1, 400 mg, n = 6) was 4 (66.7) n (%), the “Treatment-emergent AE: Neutropenia” value (phase 1, 400 mg, n = 6) was 1 (16.7) n (%) and the “Treatment-emergent AE: Night sweats” value (phase 1, 400 mg, n = 6) was 2 (33.3) n (%). The “Treatment-emergent AE: Pain in extremity” value (phase 1, 400 mg, n = 6) was 0 n (%).
